Measurements as given in patent US6426093B1, “Synergistic biocidal activity if ternary complexes of negatively-charged biocides (component A), transition metal ions (component B), and neutral chelators (component C)” (Yissum Research Development Company of the Hebrew …, priority 1998, dated 2002).

Key:
[1] = tested on: E. coli; experiment: E. coli inactivation, survival by colony-forming ability; format: cell-based
Method: A sample of bacteria from the stock solution was diluted 100-fold in “reaction buffer” to a final concentration of 0.6 OD600 (4.8×10^6 cells/ml). Various agents were added to the bacteria following 15 minutes of preincubation at 37° C. Aliquots were removed at indicated time points into “termination buffer” to stop the reaction, and diluted by a factor of 50 to 10^6. Samples from each dilution were then plated on LB agar and grown overnight at 37° C. Each sample was plated at least five times. The colonies formed were then counted. Survival curves were evaluated from colony counts. Each experiment was repeated at least three times, and the mean values and standard error of triplicates were calculated.
In the experiments shown in FIG. 3, all the incubation mixtures contained glucose (0.5% w/v) and MgSO4 (1 mM) in HEPES buffer (10 mM, pH=7.4), and bacteria (4.8×10^6 cells/ml). The cells were exposed to the combination of PCP (0.5 mM) and Fe(OP)3 (5 μM)—designated open triangles; or with the addition of DMSO (5%)—designated closed triangles; or with SOD (50 U/ml)—designated open circles. The results presented in Table 1, which were obtained using the experimental conditions and methods described above in this example, show the effect of different concentrations of PCP and copper complex and their combinations on the inactivation of E. coli.

[2] = tested on: Bone marrow-derived mast cells (MC-9 line); experiment: Killing of mast cells, survival by trypan blue method; format: cell-based, mice; conditions: 30 minutes
Method: Bone marrow-derived mast cells (MC-9 line) were obtained from the femora of mice (line C57BL/6). The cells were cultured at 37° C. in humidified atmosphere containing 5% of CO2 in RPMI-1640, supplemented with 10% fetal calf serum, 2 mM L-glutamine, 100 U/ml penicillin, 100 μg/ml streptomycin, and 50 μM β-2-mercaptoethanol. Mast cells were grown (14 days), washed and resuspended in reaction medium (only RPMI-1640) and treated for 30 minutes as indicated above. The survival was determined by the trypan blue method.

## Oc1c(Cl)c(Cl)c(Cl)c(Cl)c1Cl [PCP, Pentachlorophenol]
[1]; PCP 0.4 mM
  Survival (%): 95.6%
[2]; PCP 0.5 mM
  Survival (%): 90.5%

## [Cu+2].c1cnc2c(c1)ccc1cccnc12.c1cnc2c(c1)ccc1cccnc12.c1cnc2c(c1)ccc1cccnc12 [[Cu^II (OP)3]^2+complex, 1,10-phenanthroline-copper [Cu^II (OP)3]^2+complex]
[1]; in combination with PCP, bacterial inactivation
  activity relative to the analogous iron complex: 100 times

## [Cu+2].c1cnc2c(c1)ccc1cccnc12.c1cnc2c(c1)ccc1cccnc12 [Cu^II (OP)2]
[1]; Cu^II (OP)2 1 μM
  Survival (%): 99.5%

## [Fe+2].c1cnc2c(c1)ccc1cccnc12.c1cnc2c(c1)ccc1cccnc12.c1cnc2c(c1)ccc1cccnc12 [Fe^II (OP)3]
[2]; Fe^II (OP)3 100 (unit not given)
  Survival (%): 95.4%
